Test results published in patent US20250100998A1, “PARP7 INHIBITORS” (Gilead Sciences, Inc., priority 2023, published 2025).
pEC50: −log10 of the molar value.

tested on: STAT1 (phosphorylated at Tyr701) in NCI-H1373 cells; test: Phospho-STAT1 (Tyr701) LANCE Ultra TR-FRET detection assay; type: cell-based; settings: Homo sapiens, NCI-H1373, 48 h, induction of pSTAT1 in NCI-H1373 cells, 48 hours incubation; normalized to 10 uM positive control and DMSO; 4-parameter fit; read-out: NH1373 pSTAT1 EC50
Procedure, shortened: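 Endogenous pSTAT1 (Tyr701) induction measured in NCI-H1373 cells seeded onto compound and incubated 48 h at 37 °C. Lysates assayed by LANCE Ultra sandwich TR-FRET; 665/620 nm ratio normalized to 10 uM reference […] (positive) and DMSO (negative). EC50 from 4-parameter fit.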

SMILES	pEC50
N#Cc1cnc(-c2cc3ccn(C[C@@H]4CCC[C@H](Nc5cn[nH]c(=O)c5C(F)(F)F)C4)c(=O)c3c(F)c2F)nc1 [Example 29, 2-(7,8-difluoro-1-oxo-2-(((1R,3S)-3-((6-oxo-5-(trifluoromethyl)-1,6-dihydropyridazin-4-yl)amino)cyclohexyl)methyl)-1,2-dihydroisoquinolin-6-yl)pyrimidine-5-carbonitrile]	8.75
COc1nc(-c2cc3ccn(C[C@@H]4CCC[C@H](Nc5cn[nH]c(=O)c5C(F)(F)F)C4)c(=O)c3cc2F)ncc1C#N [Example 3, 2-(7-fluoro-1-oxo-2-(((1R,3S)-3-((6-oxo-5-(trifluoromethyl)-1,6-dihydropyridazin-4-yl)amino)cyclohexyl)methyl)-1,2-dihydroisoquinolin-6-yl)-4-methoxypyrimidine-5-carbonitrile]	8.41
[2H]C([2H])([2H])Oc1cnc(-c2cc3c(cc2F)C(=O)N(C[C@@H]2CCC[C@H](Nc4cn[nH]c(=O)c4C(F)(F)F)C2)CC3)nc1 [Example 71, 7-fluoro-2-[[(1R,3S)-3-[[6-oxo-5-(trifluoromethyl)-1H-pyridazin-4-yl]amino]cyclohexyl]methyl]-6-[5-(trideuteriomethoxy)pyrimidin-2-yl]-3,4-dihydroisoquinolin-1-one]	8.12
O=c1[nH]ncc(N[C@H]2CCC[C@@H](Cn3ccc4cc(-c5ncc(-n6cccn6)cn5)c(F)cc4c3=O)C2)c1C(F)(F)F [Example 1, 7-fluoro-2-[[(1R,3S)-3-[[6-oxo-5-(trifluoromethyl)-1H-pyridazin-4-yl]amino]cyclohexyl]methyl]-6-(5-pyrazol-1-ylpyrimidin-2-yl)isoquinolin-1-one]	8.18
O=c1[nH]ncc(N[C@H]2CCC[C@@](O)(Cn3ccc4cc(-c5ncc(C(F)(F)F)cn5)c(F)cc4c3=O)C2)c1C(F)(F)F [Example 63, 7-fluoro-2-[[(1S,3S)-1-hydroxy-3-[[6-oxo-5-(trifluoromethyl)-1H-pyridazin-4-yl]amino]cyclohexyl]methyl]-6-[5-(trifluoromethyl)pyrimidin-2-yl]isoquinolin-1-one]	8.73
CC(C)(O)c1cnc(-c2cc3c(F)cn(C[C@@H]4CCC[C@H](Nc5cn[nH]c(=O)c5C(F)(F)F)C4)c(=O)c3cc2F)nc1 [Example 39]	8.38
O=c1[nH]ncc(N[C@H]2CCC[C@@H](Cn3cc(F)c4cc(-c5ncc(C(F)F)cn5)c(F)c(F)c4c3=O)C2)c1C(F)(F)F [Example 34, 6-(5-(difluoromethyl)pyrimidin-2-yl)-4,7,8-trifluoro-2-(((1R,3S)-3-((6-oxo-5-(trifluoromethyl)-1,6-dihydropyridazin-4-yl)amino)cyclohexyl)methyl)isoquinolin-1(2H)-one]	9.02
O=C1c2cc(F)c(-c3ncc(C(F)(F)F)cn3)cc2CCN1C[C@@H]1CCC[C@H](Nc2cn[nH]c(=O)c2C(F)(F)F)C1 [Example 69, 7-fluoro-2-[[(1R,3S)-3-[[6-oxo-5-(trifluoromethyl)-1H-pyridazin-4-yl]amino]cyclohexyl]methyl]-6-[5-(trifluoromethyl)pyrimidin-2-yl]-3,4-dihydroisoquinolin-1-one]	8.34
O=c1[nH]ncc(N[C@H]2CCC[C@@H](Cn3cc(F)c4cc(-c5ncc(OCCO)cn5)c(F)cc4c3=O)C2)c1C(F)(F)F [Example 38]	7.90
N#Cc1cnc(-c2cc3ccn(C[C@@H]4CCC[C@H](Nc5cn[nH]c(=O)c5C(F)(F)F)C4)c(=O)c3cc2F)nc1 [Example 2, 2-(7-fluoro-1-oxo-2-(((1R,3S)-3-((6-oxo-5-(trifluoromethyl)-1,6-dihydropyridazin-4-yl)amino)cyclohexyl)methyl)-1,2-dihydroisoquinolin-6-yl)pyrimidine-5-carbonitrile]	7.93
